From ChEMBL document CHEMBL5356942, “MEK inhibitors in cancer treatment: structural insights, regulation, recent advances and future perspectives” (RSC Med Chem, 2023)
One block for each compound: values may come before it.

Assays:
[1] = Cytotoxicity against human QSG7701 cells assessed as inhibition of cell growth incubated for 48 hrs by MTT assay; type: functional, cell-based; conditions: QSG7701, 48 h
SMMC-7721 [2] = assay: Cytotoxicity against human SMMC-7721 cells assessed as reduction in cell growth incubated for 48 hrs by MTT assay; type: functional, cell-based; conditions: SMMC-7721, 48 h
Hep 3B2 = assay: Cytotoxicity against human Hep3B cells assessed as reduction in cell viability incubated for 48 hrs by MTT assay; type: functional, cell-based
[3] = AUC (0 to t) in ICR mouse at 3 mg/kg, po administered via gavage measured after 24 hrs by LC-MS/MS analysis; type: ADME, organism-based; parameters: time 24 hrs, dose 3 mg/kg, route po; conditions: in vivo
[4] = Oral bioavailability in ICR mouse at 3 mg/kg measured after 24 hrs by LC-MS/MS analysis; type: ADME, organism-based; conditions: in vivo
RD = assay: Cytotoxicity against human RD cells assessed as reduction in cell viability incubated for 72 hrs by MTT assay; type: functional
Enterovirus A71 [5] = assay: Antiviral activity against human Enterovirus 71 BrCr infected in human RD cells assessed as reduction of virus induced cytopathic effect incubated for 48 hrs by MTS assay; type: functional, organism-based; conditions: Enterovirus A
[6] = Therapeutic index, ratio of CC50 for HEK293 cells to EC50 for antiviral activity against human EV71 infected in HEK293 cells; type: functional
HEK293 = assay: Cytotoxicity against HEK293 cells assessed as reduction in cell viability measured after 66 hrs by MTT assay; type: functional; conditions: Homo sapiens
Enterovirus A71 [7] = assay: Antiviral activity against human EV71 infected in HEK293 cells assessed as reduction in viral replication at MOI of 1 incubated for 48 hrs by luciferase assay; type: functional, organism-based; conditions: Enterovirus A, HEK293, 48 h
[8] = Therapeutic index, ratio of CC50 for RD cells to EC50 for antiviral activity against human EV71 infected in RD cells; type: functional
A-375 = assay: Antiproliferative activity against human A375 cells assessed as reduction in cell growth incubated for 24 hrs by MTT assay; type: functional, cell-based; conditions: A-375, 24 h
COLO 205 = assay: Antiproliferative activity against human COLO 205 cells assessed as reduction in cell proliferation incubated for 24 hrs byMTS assay; type: functional, cell-based; conditions: COLO 205, 24 h
A-431 = assay: Antiproliferative activity against human A-431 cells assessed as reduction in cell proliferation incubated for 24 hrs by MTT assay; type: functional, cell-based; conditions: A-431, 24 h
Calu-6 = assay: Antiproliferative activity against human Calu-6 cells assessed as reduction in cell growth incubated for 24 hrs by MTT assay; type: functional, cell-based; conditions: Calu-6, 24 h
HT-29 [9] = assay: Antiproliferative activity against human HT-29 cells assessed as reduction in cell growth incubated for 24 hrs by MTT assay; type: functional, cell-based; conditions: HT-29, 24 h
[10] = Cytotoxicity against human QSG7701 cells assessed as inhibition of cell growth incubated for 72 hrs by MTT assay; type: functional, cell-based; conditions: QSG7701, 72 h
SMMC-7721 [11] = assay: Cytotoxicity against human SMMC-7721 cells assessed as reduction in cell viability incubated for 72 hrs by MTT assay; type: functional, cell-based; conditions: SMMC-7721, 72 h
MDA-MB-231 = assay: Cytotoxicity against human MDA-MB-231 cells assessed as reduction in cell viability incubated for 72 hrs by MTT assay; type: functional, cell-based; conditions: MDA-MB-231, 72 h
HeLa = assay: Cytotoxicity against human HeLa cells assessed as reduction in cell viability incubated for 72 hrs by MTT assay; type: functional, cell-based
[12] = target: Mitogen-activated protein kinase 1 (Homo sapiens, UniProt P28482); assay: Inhibition of ERK2 phosphorylation in human A375 cells
Mitogen-activated protein kinase 1, sequence (P28482 whole entry): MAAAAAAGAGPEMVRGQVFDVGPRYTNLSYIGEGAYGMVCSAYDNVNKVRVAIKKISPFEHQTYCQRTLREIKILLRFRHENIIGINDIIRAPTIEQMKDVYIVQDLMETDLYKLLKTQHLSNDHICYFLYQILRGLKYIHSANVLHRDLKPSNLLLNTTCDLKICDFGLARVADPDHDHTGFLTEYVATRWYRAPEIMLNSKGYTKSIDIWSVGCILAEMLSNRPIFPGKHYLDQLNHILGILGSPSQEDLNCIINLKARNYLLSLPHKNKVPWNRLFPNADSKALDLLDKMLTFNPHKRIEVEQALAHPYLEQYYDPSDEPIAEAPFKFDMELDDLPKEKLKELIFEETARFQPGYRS

MCF7 = assay: Cytotoxicity against human MCF7 cells assessed as reduction in cell viability incubated for 24 hrs by MTT assay; type: functional, cell-based; conditions: MCF7, 24 h
B16 = assay: Cytotoxicity against mouse B16 cells assessed as reduction in cell viability incubated for 24 hrs by MTT assay; type: functional, cell-based; conditions: B16, 24 h
HT-29 [13] = assay: Cytotoxicity against human HT-29 cells assessed as reduction in cell viability incubated for 24 hrs in dark by MTT assay; type: functional, cell-based; conditions: HT-29, 24 h
[14] = Inhibition of ERK phosphorylation in human A-431 cells at 1 to 10 uM incubated for 24 hrs by Western blot analysis; type: cell-based; conditions: A-431, 24 h

SMILES: CCOc1ccc2c(c1)c1c(n2CCN2CCNCC2)-c2cc(C(C)C)ccc2[C@@]2(C)CCC[C@@](C)(C(=O)OC)C12 (stereo not given in full)
IC50 [1]: 12.5 µM | IC50 (SMMC-7721 [2]): 1.39 µM | IC50 (Hep 3B2): 0.73 µM

AUCt [3]: 337 ng·h/mL | bioavailability [4]: 28%
SMILES: Cc1cc(I)ccc1Nc1c(C(=O)NOCCO)cc2ocnc2c1F

SMILES: CCc1c(Cc2ccc(F)cc2)c(=O)oc2cc(OC(=O)N(C)C)ccc12
CC50 (RD): 72.9 µM | EC50 (Enterovirus A71 [5]): 10 µM | Ratio CC50/EC50 [6]: 3.37 | CC50 (HEK293): 65.3 µM | EC50 (Enterovirus A71 [7]): 19.4 µM | Ratio CC50/EC50 [8]: 7.29

IC50 (A-375): 0.0043 µM | IC50 (COLO 205): 0.0057 µM | IC50 (A-431): > 3 µM | IC50 (Calu-6): 0.169 µM | IC50 (HT-29 [9]): 0.0029 µM
SMILES: O=C(NOCCO)c1cc2ocnc2c(F)c1Nc1ccc(F)cc1F

SMILES: CC(=O)NNC(=O)[C@]12CC[C@@H](C)[C@H](C)C1C1=CCC3[C@@]4(C)Cc5cc6cc(Cl)ccc6cc5C(C)(C)C4CC[C@@]3(C)[C@]1(C)CC2 (stereo not given in full)
IC50 [10]: 10.8 µM | IC50 (SMMC-7721 [11]): 0.34 µM | IC50 (MDA-MB-231): 0.12 µM | IC50 (HeLa): 0.08 µM

IC50 [12]: 0.018 µM
SMILES: CC(=O)COC[C@H](O)CONC(=O)c1ccc(F)c(F)c1Nc1ccc(F)cc1F

SMILES: N#Cc1c(-c2ccccc2Br)c(N2CCOCC2)n(-c2ccc(Cl)cc2Cl)c1N
IC50 (MCF7): 1.35 µM | IC50 (B16): 4.61 µM | IC50 (HT-29 [13]): 1.47 µM

EC50 [14]: 0.00019 µM
SMILES: Cn1c(=O)c(F)c(Nc2ccc(I)cc2F)c2c(=O)n(C[C@@H](O)CO)cnc21 [TAK-733]
